According to patent US11293927B2, “Screening methods for PARP modulators” (Ribon Therapeutics, Inc., priority 2018, dated 2022):

Experiments:
TIPARP = biological target: T1, TIPARP (Homo sapiens, UniProt Q7Z3E1); assay: In vitro TR-FRET probe displacement assay (Probe C), TIPARP; format: binding; conditions: TR-FRET displacement of Probe C, TIPARP residues 456-657
T1 construct: made in house; host or cells: E. coli
T1 sequence (Q7Z3E1 456-657): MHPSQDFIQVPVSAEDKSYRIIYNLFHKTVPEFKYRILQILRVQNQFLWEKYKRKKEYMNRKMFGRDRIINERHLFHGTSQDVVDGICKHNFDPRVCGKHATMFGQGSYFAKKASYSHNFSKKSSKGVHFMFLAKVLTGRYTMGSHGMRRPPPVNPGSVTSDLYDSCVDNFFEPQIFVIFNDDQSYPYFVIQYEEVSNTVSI
Method: A portion of TIPARP (residues 456 to 657 of NP_056323.2 (SEQ ID NO: 1), GenBank Accession No. NM_015508.4) was overexpressed in E. coli cells. An N-terminal fusion tag, […] (SEQ ID NO: 7), was used to purify the protein from cell lysates. The fusion tag was left on the protein for use in the probe displacement assay.
(§1) Displacement of a Probe C binding to monoPARP active sites was measured using a time-resolved fluorescence resonance energy transfer (TR-FRET) assay. 20 nL of a dose response curve of each test compound was spotted in black 384-well polystyrene proxiplates (Perkin Elmer) using a Mosquito (TTP Labtech). Reactions were performed in an 8 μL volume by adding 6 μL of the monoPARP and Probe C in assay buffer (20 mM HEPES pH=8, 100 mM NaCl, 0.1% bovine serum albumin, 2 mM DTT and 0.002% Tween20), incubating with test compound at 25° C. for 30 min, then adding 2 μL of ULight-anti 6×His and LANCE Eu-W 1024 labeled streptavidin (Perkin Elmer). Binding reactions were equilibrated at 25° C. for an additional 30 min, then read on an Envision platereader equipped with a LANCE/DELFIA top mirror (Perkin Elmer) using excitation of 320 nm and emission of 615 nm and […] with a 90 μs delay. The ratio of the 665/615 nm emission were calculated for each well to determine the amount of complex of monoPARP and Probe C in each well. […]

PARP12 = biological target: T2, PARP12 (Homo sapiens, UniProt Q9H0J9); assay: In vitro TR-FRET probe displacement assay (Probe C), PARP12; format: binding; design: 489-684 of; conditions: TR-FRET displacement of Probe C, PARP12 residues 489-684
T2 sequence (Q9H0J9 489-684): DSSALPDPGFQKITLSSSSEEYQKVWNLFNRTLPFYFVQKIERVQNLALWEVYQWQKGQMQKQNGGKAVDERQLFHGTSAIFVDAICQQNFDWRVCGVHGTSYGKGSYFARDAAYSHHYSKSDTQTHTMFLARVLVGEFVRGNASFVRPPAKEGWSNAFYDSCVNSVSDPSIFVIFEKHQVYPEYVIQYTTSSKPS
Method: A portion of PARP12 (residues 489 to 684 of NP_073587.1 (SEQ ID NO: 3), GenBank Accession No. NM_022750.3) was overexpressed in Sf9 cells. An N-terminal fusion tag, MAHHHHHHENLYFQSM (SEQ ID NO: 8), was used to purify the protein from cell lysates. The fusion tag was left on the protein for use in the probe displacement assay.
as §1, with “in a” for “in an”, “of ULight-streptavidin” for “of ULight-anti 6×His”, “1024 Anti-6×His” for “1024 labeled streptavidin”

O=c1[nH]ncc(N2Cc3ccc(OC4CCNCC4)cc3C2)c1C(F)(F)F [Compound A, 5-[5-(Piperidin-4-yloxy)-2,3-dihydro-1H-isoindol-2-yl]-4-(trifluoromethyl)-2,3-dihydropyridazin-3-one]
IC50 (TIPARP): 7 nM | IC50 (PARP12): 200 nM
